Experimental data reported in ChEMBL document CHEMBL3045251, “Ethephon elicits protection against Erysiphe necator in grapevine” (2008).
Active and inactive are the calls of the source. The calls are words filed in the database; no cut-off is given here.

Key:
[1] = system: Erysiphe necator; assay: Fungicidal activity against Erysiphe necator infected 72 hr compound pre-treated grapevine leaf disks assessed as reduction in fungal colonization measured 14 days post fungal inoculation; assay type: functional; design: scale not given: the % may be the effect or the level left
[2] = system: Vitis vinifera; assay: Induction of trans-piceid accumulation in Vitis vinifera cv. Cabernet Sauvignon foliar cuttings assessed per dry weight of plant at 0.5 g/L measured after 72 hr post dose by fluorimetry; assay type: functional
[3] = system: Vitis vinifera; assay: Increase in phenylalanine stilbene synthase gene expression in Vitis vinifera cv. Cabernet Sauvignon foliar cuttings at 0.5 g/L measured after 6 hr post dose by RTq-PCR method relative to untreated control; assay type: functional
[4] = system: Vitis vinifera; assay: Induction of trans-stilbenes in Vitis vinifera cv. Cabernet Sauvignon foliar cuttings at 0.5 g/L measured after 20 to 80 hr post dose by fluorimetry; assay type: functional, organism-based
[5] = system: Vitis vinifera; assay: Induction of delta-viniferin accumulation in Vitis vinifera cv. Cabernet Sauvignon foliar cuttings assessed per dry weight of plant at 0.5 g/L measured after 72 hr post dose by fluorimetry; assay type: functional
[6] = system: Vitis vinifera; assay: Induction of epsilon-viniferin accumulation in Vitis vinifera cv. Cabernet Sauvignon foliar cuttings assessed per dry weight of plant at 0.5 g/L measured after 24 hr post dose by fluorimetry; assay type: functional
[7] = system: Vitis vinifera; assay: Induction of trans-resveratrol accumulation in Vitis vinifera cv. Cabernet Sauvignon foliar cuttings assessed per dry weight of plant at 0.5 g/L measured after 24 to 72 hr post dose by fluorimetry; assay type: functional
[8] = system: Erysiphe necator; assay: Fungicidal activity against Erysiphe necator infected 72 hr compound pre-treated grapevine foliar cuttings assessed as reduction in powdery mildew infection measured 14 days post fungal inoculation; assay type: functional; design: scale not given: the % may be the effect or the level left
[9] = system: Vitis vinifera; assay: Increase in polygalacturonase-inhibiting protein gene expression in Vitis vinifera cv. Cabernet Sauvignon foliar cuttings at 0.5 g/L measured after 12 to 24 hr post dose by RTq-PCR method relative to untreated control; assay type: functional
[10] = system: Vitis vinifera; assay: Increase in […] class IV chitinase gene expression in Vitis vinifera cv. Cabernet Sauvignon foliar cuttings at 0.5 g/L measured after 6 hr post dose by RTq-PCR method relative to untreated control; assay type: functional
[11] = system: Vitis vinifera; assay: Increase in beta-1,3- glucanase gene expression in Vitis vinifera cv. Cabernet Sauvignon foliar cuttings at 0.5 g/L measured after 12 to 24 hr post dose by RTq-PCR method relative to untreated control; assay type: functional
[12] = system: Vitis vinifera; assay: Induction of delta-viniferin accumulation in Vitis vinifera cv. Cabernet Sauvignon foliar cuttings assessed per dry weight of plant at 0.5 g/L measured after 24 hr post dose by fluorimetry; assay type: functional
[13] = system: Vitis vinifera; assay: Induction of pterostilbene accumulation in Vitis vinifera cv. Cabernet Sauvignon foliar cuttings assessed per dry weight of plant at 0.5 g/L measured after 24 to 72 hr post dose by fluorimetry; assay type: functional
[14] = system: Vitis vinifera; assay: Increase in phenylalanine ammonia lyase gene expression in Vitis vinifera cv. Cabernet Sauvignon foliar cuttings at 0.5 g/L measured after 6 hr post dose by RTq-PCR method relative to untreated control; assay type: functional
[15] = system: Vitis vinifera; assay: Increase in […] protease inhibitor gene expression in Vitis vinifera cv. Cabernet Sauvignon foliar cuttings at 0.5 g/L measured after 12 to 72 hr post dose by RTq-PCR method relative to untreated control; assay type: functional

O=P(O)(O)CCCl [ETHEPHON]
Activity [1]: 64% | Activity [2]: 312 nmol/g | fold change (FC) [3]: 67 | Activity [4]: Active | Activity [5]: 6 nmol/g | Activity [6]: 58 nmol/g | Activity [7]: 133 nmol/g | Activity [8]: 70% | fold change (FC) [9]: 22 | fold change (FC) [10]: 11 | fold change (FC) [11]: 33 | Activity [12]: 12 nmol/g | Activity [13]: 10 nmol/g | fold change (FC) [14]: 10 | fold change (FC) [15]: 9
